The test addresses T1, Serine/threonine-protein kinase ATR [14-953] (Homo sapiens, UniProt Q13535).
T1 construct: 14-953
As to the kind of experiment: ATR Enzyme Assay. As to the method:
In this experiment, the phosphorylation level of substrate protein P53 (Eurofins, 14-952) was detected by HTRF technology to measure the activity of ATR/ATRIP (Eurofins, 14-953) kinase. Reaction buffer (25 mM HEPES pH 8.0, 0.01% Brij-35, 1% Glycerol, 5 mM DTT, 1 mg/mL BSA), termination buffer (12.5 mM HEPES pH 8.0, 0.005% Brij-35, 0.5% Glycerol, 250 mM EDTA) and assay buffer (50 mM HEPES pH 7.0, 150 mM NaCl, 267 mM KF, 0.1% sodium cholate, 0.01% Tween 20) were prepared in advance. ATR/ATRIP was diluted with reaction buffer to a working solution of 2 ng/μL, and the substrate protein P53 was diluted with reaction buffer to a working solution of 80 nM, and […] (Sigma, A2383) working solution (containing 40 mM MnCl2) was prepared with reaction buffer. The compound was 3-fold diluted with DMSO, then diluted with reaction buffer into a working solution, then added to a 384-well plate at 2.5 μL/well, and centrifuged at 1500 rpm for 40 s. Then 2.5 μL of ATR/ATRIP working solution, P53 working solution and ATP working solution were added into the 384-well plate, centrifuged at 1500 rpm for 40 s and reacted at room temperature for 30 minutes.

T1 sequence (Q13535 14-953): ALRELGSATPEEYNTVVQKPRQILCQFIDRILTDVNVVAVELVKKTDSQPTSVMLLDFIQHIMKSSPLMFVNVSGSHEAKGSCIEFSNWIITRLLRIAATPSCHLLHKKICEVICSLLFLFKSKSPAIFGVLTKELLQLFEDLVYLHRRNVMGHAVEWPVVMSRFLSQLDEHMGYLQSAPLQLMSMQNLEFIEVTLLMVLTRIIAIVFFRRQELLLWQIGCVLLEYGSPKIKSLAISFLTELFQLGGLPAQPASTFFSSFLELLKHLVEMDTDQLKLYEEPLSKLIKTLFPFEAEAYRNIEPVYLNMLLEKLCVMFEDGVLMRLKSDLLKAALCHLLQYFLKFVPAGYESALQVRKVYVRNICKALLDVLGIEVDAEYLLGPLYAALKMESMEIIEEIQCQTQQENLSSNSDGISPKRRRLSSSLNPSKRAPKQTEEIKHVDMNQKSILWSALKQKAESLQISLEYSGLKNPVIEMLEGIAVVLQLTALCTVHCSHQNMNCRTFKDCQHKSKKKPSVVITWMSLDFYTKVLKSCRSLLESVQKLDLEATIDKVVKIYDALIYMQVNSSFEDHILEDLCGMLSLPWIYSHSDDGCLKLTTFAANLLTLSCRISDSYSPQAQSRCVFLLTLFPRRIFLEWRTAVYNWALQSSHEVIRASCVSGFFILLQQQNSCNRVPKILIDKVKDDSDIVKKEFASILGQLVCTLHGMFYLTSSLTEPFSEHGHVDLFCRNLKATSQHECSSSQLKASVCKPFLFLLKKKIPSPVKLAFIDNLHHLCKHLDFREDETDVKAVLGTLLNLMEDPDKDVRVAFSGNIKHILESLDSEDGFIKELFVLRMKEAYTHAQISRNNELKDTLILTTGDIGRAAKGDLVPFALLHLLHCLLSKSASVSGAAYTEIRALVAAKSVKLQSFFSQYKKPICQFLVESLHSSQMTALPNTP

For the compound `C[C@@H]1COCCN1c1nc2c(cnn2-c2cc[nH]n2)c2c1CCN2S(N)(=O)=O` [US20240025899, Compound 5], inhibition was half-maximal at 0.0065 µM (IC50). This counts as single-digit nanomolar.
`C[C@@H]1COCCN1c1nc2c(cnn2-c2cc[nH]n2)c2c1CCN2C` [US20240025899, Compound 12]: the midpoint of inhibition, the IC50, lay at 0.014 µM.

These data come from BindingDB's records for patent US20240025899 (Shanghai De Novo Pharmatech, 2024).
